Measurements taken from the supplement of paper PMC10307832.

How the values were obtained:
Assay in all cases: relative viability (nuclei count vs DMSO), 5 days (fraction); higher = more cells survive
KN-93 + Phenformin = compound: CN(C/C=C/C1=CC=C(C=C1)Cl)CC2=CC=CC=C2N(CCO)S(=O)(=O)C3=CC=C(C=C3)OC [KN-93] + N=C(N)NC(=N)NCCc1ccccc1 [Phenformin] (partner 250 µM)
Method in brief: (§1)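 After 5 days of treatment, lung cancer cells in 1536-well plates were fixed and stained in a single step (final 0.05% Triton X-100, 1% formaldehyde, 1 ug/ml Hoechst) and their nuclei counted on 4× images. Treatment had been applied by pin tool the day after seeding as one drug alone or as a fixed anchor-drug dose with five library-drug doses (not always all listed) in √10 steps. Relative viability is the nuclei count of treated wells divided by that of vehicle wells, and values are medians of duplicate plates.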

KN-93 + Pemetrexed = compound: CN(C/C=C/C1=CC=C(C=C1)Cl)CC2=CC=CC=C2N(CCO)S(=O)(=O)C3=CC=C(C=C3)OC [KN-93] + Nc1nc2[nH]cc(CCc3ccc(C(=O)N[C@@H](CCC(=O)O)C(=O)O)cc3)c2c(=O)[nH]1 [Pemetrexed] (partner 0.2 µM)
Method in brief: as §1

KN-93 + Linsitinib = compound: CN(C/C=C/C1=CC=C(C=C1)Cl)CC2=CC=CC=C2N(CCO)S(=O)(=O)C3=CC=C(C=C3)OC [KN-93] + C[C@]1(O)C[C@@H](c2nc(-c3ccc4ccc(-c5ccccc5)nc4c3)c3c(N)nccn32)C1 [Linsitinib] (partner 1 µM)
Method in brief: as §1

KN-93 + Tozasertib = compound: CN(C/C=C/C1=CC=C(C=C1)Cl)CC2=CC=CC=C2N(CCO)S(=O)(=O)C3=CC=C(C=C3)OC [KN-93] + Cc1cc(Nc2cc(N3CCN(C)CC3)nc(Sc3ccc(NC(=O)C4CC4)cc3)n2)n[nH]1 [Tozasertib] (partner 0.1 µM)
Method in brief: as §1

KN-93 + Bortezomib = compound: CN(C/C=C/C1=CC=C(C=C1)Cl)CC2=CC=CC=C2N(CCO)S(=O)(=O)C3=CC=C(C=C3)OC [KN-93] + CC(C)C[C@H](NC(=O)[C@H](Cc1ccccc1)NC(=O)c1cnccn1)B(O)O [Bortezomib] (partner 0.002 µM)
Method in brief: as §1

| Cell Line | relative viability (KN-93 + Phenformin; first compound 0.08 µM) | relative viability (KN-93 + Phenformin; first compound 0.253 µM) | relative viability (KN-93 + Phenformin; first compound 2.53 µM) | relative viability (KN-93 + Phenformin; first compound 8 µM) | relative viability (KN-93 + Pemetrexed; first compound 0.08 µM) | relative viability (KN-93 + Pemetrexed; first compound 0.253 µM) | relative viability (KN-93 + Pemetrexed; first compound 2.53 µM) | relative viability (KN-93 + Pemetrexed; first compound 8 µM) | relative viability (KN-93 + Linsitinib; first compound 0.08 µM) | relative viability (KN-93 + Linsitinib; first compound 0.253 µM) | relative viability (KN-93 + Linsitinib; first compound 2.53 µM) | relative viability (KN-93 + Linsitinib; first compound 8 µM) | relative viability (KN-93 + Tozasertib; first compound 0.08 µM) | relative viability (KN-93 + Tozasertib; first compound 0.253 µM) | relative viability (KN-93 + Tozasertib; first compound 2.53 µM) | relative viability (KN-93 + Tozasertib; first compound 8 µM) | relative viability (KN-93 + Bortezomib; first compound 0.08 µM) | relative viability (KN-93 + Bortezomib; first compound 0.253 µM) | relative viability (KN-93 + Bortezomib; first compound 2.53 µM) | relative viability (KN-93 + Bortezomib; first compound 8 µM) |
| --- | --- | --- | --- | --- | --- | --- | --- | --- | --- | --- | --- | --- | --- | --- | --- | --- | --- | --- | --- | --- |
| SK-MES-1 | 0.554 | 0.751 | 0.699 | 0.571 | 1.03 | 0.945 | 1.05 | 0.806 | 1.06 | 1.05 | 1.12 | 1.02 | 0.919 | 0.98 | 1.04 | 0.4 | – | – | – | – |
| 201T | 0.47 | 0.424 | 0.51 | 0.452 | 0.327 | 0.315 | 0.32 | 0.323 | 1.04 | 0.968 | 0.995 | 0.837 | 0.916 | 0.99 | 0.819 | 0.508 | 1.11 | 1.15 | 1.07 | 0.554 |
| ChaGo-K-1 | 0.456 | 0.56 | 0.466 | 0.453 | 0.264 | 0.259 | 0.246 | 0.258 | – | – | – | – | 0.234 | 0.232 | 0.243 | 0.2 | 1.33 | 1.18 | 1.15 | 0.536 |
| HCC-366 | 0.595 | 0.661 | 0.639 | 0.277 | 0.157 | 0.175 | 0.189 | 0.133 | – | 0.706 | 0.844 | 0.334 | 0.0849 | 0.0834 | 0.111 | 0.0411 | – | 1.48 | 1.57 | 0.955 |
